Measurements reported in US12583888B2, “Bi-specific extracellular matrix binding peptides and methods of use thereof” (University of Tartu, priority 2019, dated 2026).
“And” between values parts separate entries of the source, which are not always exact repeats. Equal values may be shown once. No end group written: not given here.

Assays:
TNC-C = target: T1, TNC-C (Homo sapiens, UniProt P24821); experiment: Individual peptide-phage binding to TNC-C; settings: individual peptide phages
T1 construct: made in house; host or cells: E. coli BL21 Rosetta 2 (DE3) pLysS
T1 sequence (P24821 with tags, fused parts or gaps): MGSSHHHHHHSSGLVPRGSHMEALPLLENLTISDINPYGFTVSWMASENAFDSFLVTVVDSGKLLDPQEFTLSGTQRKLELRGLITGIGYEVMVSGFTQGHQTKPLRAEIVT

P13 tumor = settings: i.v. equimolar mix, 2 h circulation
From the text: (§1) In vivo play-off was used to evaluate systemic homing of peptide phage to xenograft tumor models. The in vitro selected candidate TNC-C binding peptides, phages displaying published tumor homing peptides, and control peptides were amplified and purified by precipitation with PEG-8000 (Sigma-Aldrich, St. Louis, MO, USA), followed by CsCl2 gradient ultracentrifugation and dialysis. The amplified phage peptides were pooled in equimolar quantities, and injected intravenously (final 1×10^10 pfu in 200 μl PBS) in tumor-bearing mice for two hour circulation, after which mice were anesthetized with 2.5% avertin and intracardially perfused with DMEM intracardially. The tumors and organs were collected in lysogeny broth (LB)+1% NP40, and the tissues were homogenized using a hand-held homogenizer for phage peptide rescue. Phages in the tissue lysates were amplified in E. coli, purified by precipitation with PEG-8000 and DNA was extracted using a DNA extraction kit (High Pure PCR Template Preparation Kit; Roche, Basel, Switzerland). Next-generation sequencing of phage genomic DNA evaluated the representation of each phage in input mixture, in tumor and control organs with Ion Torrent system (Thermo Fisher Scientific, Waltham, MA, USA). The next generation deep sequencing of phage library was done using Ion Torrent according to the manufacturer's protocol with slight modification. The FASTQ data from Ion Torrent was processed by a custom python script that identified the barcodes, constant flanking residues, and extracted the reads of the correct length.

P3 stem cell-like tumor = settings: i.v. equimolar mix, 2 h circulation
From the text: as §1

[1] = test system: PC3 prostate carcinoma xenografts; settings: i.v. equimolar mix, 2 h circulation
From the text: as §1

U87-MG glioblastoma = settings: i.v. equimolar mix, 2 h circulation
From the text: as §1

WT-GBM tumor = settings: i.v. equimolar mix, 2 h circulation
From the text: as §1

normal brain = settings: i.v. equimolar mix, 2 h circulation
From the text: as §1

[2] = Zeta potential and size of iron oxide nanoworms by DLS; type: physicochemical; settings: n = 3
Method: The concentration of the NWs was determined by constructing a calibration curve with iron oxide and measuring the absorbance of NWs at 400 nm with a NanoDrop 2000c spectrophotometer (Thermo Scientific). The concentration measurements were confirmed by ICP-MS. Transmission electron microscopy (TEM, Tecnai 10, Philips, Netherlands) was used to image the nanoparticles. Dynamic Light Scattering (DLS; Zetasizer Nano ZS, Malvern Instruments, UK) was used to assess the zeta potential, polydispersity and size of NWs.

[3] = test system: orthotopic NCH421K glioblastoma xenografts; experiment: Systemic NW tumor homing, FAM signal by confocal microscopy; type: in vivo, mice; settings: NCH421K tumors, 7.5 mg/kg i.v., 5 h
Method: For NW biodistribution studies, NWs (7.5 mg/kg) in PBS were injected into the tail vein of the tumor-bearing mice, followed by cardiac perfusion with 20 ml PBS/DMEM before collection tumor and control organs for imaging. In control experiments, NW injection was preceded by systemic pre-injection of blocking FN-EDB and/or TNC-C antibodies (30 μg/mouse) 15 min prior to injection of the NWs.
Snap-frozen 10 μm tumor cryosections were mounted on Superfrost™^+ slides. The sections were equilibrated at RT and fixed with 4% paraformaldehyde/methanol and permeabilized with PBST (PBS+0.05% Tween 20), blocked with PBST, 5% BSA, 5% goat serum (GE Healthcare, Little Chalfont, UK) at RT for 30 min, followed by primary antibody incubation at RT for 1 h. […] The coverslips were mounted on glass slides with Fluoromount-G (Electron Microscopy Sciences, PA, USA), imaged using confocal microscopy (Olympus FV1200MPE, Tokyo, Japan) and analyzed using the FV10-ASW4.2 viewer, Imaris software and ImageJ freeware.

[4] = test system: orthotopic WT-GBM glioblastoma; experiment: as above; type: in vivo, mice; settings: WT tumors, 7.5 mg/kg i.v., 5 h
Method: (§2) FAM-labeled PL2 peptide coupled NW or control FAM-NW (7.5 mg/kg) in PBS were injected into the tail vein of the subcutaneous U87, PC3, and orthotropic WT-GBM tumor mice. Five h after circulation, the tumor and organs were collected by cardiac perfusion of mice with 20 ml PBS/DMEM under deep anesthesia. Tissues were imaged under an Illuminatool Bright Light System LT-9900 (Lightools Research, Encinitas, CA, USA) before Snap-frozen. The frozen tissues were cryosectioned 8-10 μm and mounted on a superfrost+ slides. The sections were equilibrated at RT and fixed with 4% paraformaldehyde/methanol. The immunostaining performed with following primary antibodies; rabbit anti-fluorescein IgG fragment (cat. no. A889, Thermo Fisher Scientific, MA, USA), rat anti-mouse CD31 (BD Biosciences, CA, USA), and in-house prepared CF647 or CF546-labeled single chain antibodies ScFV G11, for secondary antibodies; Alexa 488 goat anti-rabbit IgG, Alexa 647 goat anti-rat IgG, and Alexa 546 goat anti-mouse IgG, were from Invitrogen, CA, USA. Nuclei were counterstained with 4′,6-diamidino-2-phenylindole (DAPI, Molecular Probes) at one 1 μg/ml. The coverslips were mounted onto glass slides with Fluoromount-G (Electron Microscopy Sciences, PA, USA) imaged using confocal microscopy (Olympus FV1200MPE, Hamburg, Germany), and analyzed using the FV10-ASW4.2 viewer/Imaris software/Fiji ImageJ.

[5] = test system: PC3 prostate carcinoma xenografts; experiment: as above; type: in vivo, mice; settings: PC3 tumors, 7.5 mg/kg i.v., 5 h
Method: as §2

orthotopic NCH421K GBM = experiment: Magnetic resonance imaging of NW-injected mice; type: in vivo
Method: For MRI, nude mice bearing orthotopic NCH421k GBM were i.v. injected with iron oxide nanoworms at 5 mg/kg. Five hours after NW injection, the mice were anesthetized with isoflurane and subjected to MRI using a 9.4 Tesla BioSpec 94/21 (Bruker BioSpin MRI GmbH, Ettlingen, Germany) equipped with ParaVision Acquisition 6.0.1 software (Bruker, Ettlingen, Germany). Following intravital MRI, the animals were perfused with PBS to remove blood and background circulating NWs and subjected to postmortem MRI. After imaging, tumors and control tissues were harvested and sectioned for immunofluorescence staining. Mice received isoflurane in oxygen mix (1.5%, flow rate of 200 ml/min) for anesthesia; the body temperature and breathing rate were monitored throughout the experiments. T2* map MGE (Multiple Gradient Echo) sequences were acquired in sagittal and coronal orientations. The following parameters were used during the data acquisition: slice thickness −0.375 mm (3 slices averaged offline for improved signal/noise ratio); inter-slice gap −0.375 mm; repetition time −800; Echo time ˜3.5-38.5 ms; flip angle ˜50°; axial slices ˜128, pixel bandwidth ˜292.9; imaging frequency ˜400.3; matrix ˜256×256, and magnetic field strength ˜9.4. To calculate T2 relaxation times, regions of interest (ROIs) were drawn manually on the images by using image sequence analysis (ISA) tool package (Paravision 5, Bruker) using T2vtr fit function y=A+C*exp (−t/T2) (A=Absolute bias, C=signal intensity, T2=spin-spin relaxation time) for T2 evaluation. To calculate mean signal intensity in the tumor to a reference region, ROIs were drawn manually on the images at given echo time (TE). Experiments were repeated in triplicate.

s.c. U87MG tumors = experiment: Experimental tumor therapy; type: in vivo, mice
Method: U87MG cells (4×10^6) in 100 μl PBS were implanted subcutaneously into the right flank of 11-15 week old male nude mice. The weight of animals and tumor volume [length×(width×width)/2] was recorded on every other day until tumor volume reached −100 mm^3. Animals were randomized into 4 groups (PBS, FAM-D[KLAKLAK]2-NWs, FAM-PL1-NWs, and FAM-PL1-D[KLAKLAK]2-NWs; 8 mice/group). 100 μl of NWs (at 5 mg/kg body weight of iron) or PBS was intravenously injected into the tail vein every other day for ten injections. Tumor size, body weight, survival, and behavior were recorded during treatment and post-therapy. When the tumor volume reached 2000 mm^3 (or >10% body weight), the mice were sacrificed, and organs and tumors were excised, macroscopically observed and snap frozen. Tumor volume, Kaplan-Meier survival and body weight curves were calculated using the GraphPad Prism 6 software with p-values <0.05 considered significant. For experimental therapy on intracranially-implanted NCH421k GBM, 32 tumor mice were randomized into 4 groups 3 days after the tumor implantation. […] Tumor size, body weight, survival, and behavior were recorded during and post-treatment. Kaplan-Meier survival and body weight curves were calculated using GraphPad Prism 6 and P values <0.05 were considered significant.

[6] = test system: intracranially-implanted NCH421k GBM; experiment: Experimental tumor therapy; type: in vivo, mice; set-up: percent of the surviving mice: concentration or dose not given beside the values
Method: U87MG cells (4×10^6) in 100 μl PBS were implanted subcutaneously into the right flank of 11-15 week old male nude mice. The weight of animals and tumor volume [length×(width×width)/2] was recorded on every other day until tumor volume reached −100 mm^3. Animals were randomized into 4 groups (PBS, FAM-D[KLAKLAK]2-NWs, FAM-PL1-NWs, and FAM-PL1-D[KLAKLAK]2-NWs; 8 mice/group). 100 μl of NWs (at 5 mg/kg body weight of iron) or PBS was intravenously injected into the tail vein every other day for ten injections. Tumor size, body weight, survival, and behavior were recorded during treatment and post-therapy. When the tumor volume reached 2000 mm^3 (or >10% body weight), the mice were sacrificed, and organs and tumors were excised, macroscopically observed and snap frozen. Tumor volume, Kaplan-Meier survival and body weight curves were calculated using the GraphPad Prism 6 software with p-values <0.05 considered significant. For experimental therapy on intracranially-implanted NCH421k GBM, 32 tumor mice were randomized into 4 groups 3 days after the tumor implantation. 100 μl of the PBS or PBS containing FAM-D[KLAKLAK]2-NWs, FAM-PL1-NWs and FAM-PL1-D[KLAKLAK]2-NWs (5 mg/kg body weight of iron; SEQ ID NO:6) were injected i.v. every other day for 10 total injections. Tumor size, body weight, survival, and behavior were recorded during and post-treatment. Kaplan-Meier survival and body weight curves were calculated using GraphPad Prism 6 and P values <0.05 were considered significant.

clinical GBM samples = experiment: NW overlay assay on clinical GBM cryosections; set-up: species or system human; settings: confocal imaging
Method: Fresh surgical GBMs ([…]) were snap-frozen in liquid nitrogen, cryosectioned at 8 μm, fixed with methanol, and permeabilized with TBS followed by blocking buffer containing 5% BSA, 5% goat serum and 5% FBS in TBS. For overlay, the sections were incubated with […] of PL1-NW or NW at 4° C. overnight. The sections were washed and blocked with blocking buffer, followed by immunostaining using rabbit anti-fluorescein primary antibodies and detection with the Alexa-488 anti-rabbit secondary antibody. FN-EDB and TNC-C were detected by fluorescently labeled single-chain antibodies ScFV L19 FN-EDB-CF647 and ScFV G11 TNC-C-CF555.

[7] = test system: Ad-VEGF-A164-induced angiogenic vessels; settings: adenovirus-injected ear, 7.5 mg/kg i.v., 24 h
Method: Angiogenesis was induced by injecting 2.5×10^8 PFU of an adenoviral vector driving expression of mouse VEGF^164 (Ad-VEGF^164) intradermally into the left ear of 7-8 week-old female nude mice (Nagy et al., Methods Enzymol. 444:43-64 (2008)). The right ear served as a control. PL1-NW or NW (at 7.5 mg/kg) were i.v. injected 4 days after induction of angiogenesis and 24 h before intravital imaging. Texas Red/Evans Blue was i.v. injected at 30 mg/kg to allow visualization of blood vessels. The ear was fixed on the coverslip for imaging using a veterinary-grade glue tape, and a mold was prepared around the ear from agarose for imaging. The body temperature was maintained throughout the experiment with a heat mat. Images and videos were acquired at an excitation wavelength of 920 nm, optical sections were taken under identical conditions, and experiments were repeated in triplicates.

[8] = test system: s.c. U87MG glioblastoma xenografts; experiment: Systemic NW tumor homing, FAM signal by confocal microscopy; settings: U87MG tumors, 7.5 mg/kg i.v., 5 h
Method: as §2

AVRGRLRVAKLAAALE
TNC-C binding (fold G7 control phage) (TNC-C): 5333 fold and 7111 fold | Representation of phage in tumors (fold G7 control phage), P13 (P13 tumor): 0.6 fold | Representation of phage in tumors (fold G7 control phage), P3 SCL (P3 stem cell-like tumor): 0.6 fold | Representation of phage in tumors (fold G7 control phage), PC3 [1]: 1.0 fold | Representation of phage in tumors (fold G7 control phage), U87-MG (U87-MG glioblastoma): 0.8 fold | Representation of phage in tumors (fold G7 control phage), WT-GBM (WT-GBM tumor): 1.3 fold | Representation of phage in control brain tissue (fold G7 control phage), Norm. brain (normal brain): 0.1 fold

PL1-NW: iron oxide nanoworms coated with FAM-labeled PL1 peptide (CPPRRGLIKLKTS; not fully specified (residue 1); also: FAM label)
Zeta Potential [2]: −10.3 ± 0.7 mV | increase in NW accumulation compared to non-targeted NWs [3]: 8.8 fold | increase in NW accumulation compared to non-targeted NWs [4]: 3.3 fold | increase in NW accumulation compared to non-targeted NWs [5]: 4.7 fold | decrease of T2* relaxation time within the tumor (orthotopic NCH421K GBM; 5 mg/kg iron i.v.): 27-36% | T2* relaxation time within the tumor (orthotopic NCH421K GBM; after NW injection, first value (post-scan, 5 h)): 17 ± 1 ms | T2* relaxation time within the tumor (orthotopic NCH421K GBM; after NW injection, second value (perfused)): 14 ± 4 ms | T2* relaxation time within the tumor (orthotopic NCH421K GBM; before NW injection (pre-scan)): about 23±2 ms | Median survival (s.c. U87MG tumors; U87MG, Kaplan-Meier): 39 days | percent of the surviving mice (s.c. U87MG tumors; U87MG, day 0): 100% | percent of the surviving mice (s.c. U87MG tumors; U87MG, day 29): 88% | percent of the surviving mice (s.c. U87MG tumors; U87MG, day 31): 75% | percent of the surviving mice (s.c. U87MG tumors; U87MG, day 33): 75% | percent of the surviving mice (s.c. U87MG tumors; U87MG, day 35): 63% | percent of the surviving mice (s.c. U87MG tumors; U87MG, day 37): 63% | percent of the surviving mice (s.c. U87MG tumors; U87MG, day 39): 38% | percent of the surviving mice (s.c. U87MG tumors; U87MG, day 41): 25% | percent of the surviving mice (s.c. U87MG tumors; U87MG, day 43): 25% | percent of the surviving mice (s.c. U87MG tumors; U87MG, day 45): 13% | percent of the surviving mice (s.c. U87MG tumors; U87MG, day 49): 13% | percent of the surviving mice (s.c. U87MG tumors; U87MG, day 57): 0% | tumor growth (s.c. U87MG tumors; s.c. U87MG, i.v. every other day, 10 injections, 5 mg/kg iron): only a slight reduction in tumor growth | Median survival ([6]; Kaplan-Meier): 42 days | percent of the surviving mice ([6]; day 0): 100% | percent of the surviving mice ([6]; day 32): 100% | percent of the surviving mice ([6]; day 37): 75% | percent of the surviving mice ([6]; day 38): 62.5% | percent of the surviving mice ([6]; day 39): 62.5% | percent of the surviving mice ([6]; day 40): 62.5% | percent of the surviving mice ([6]; day 41): 62.5% | percent of the surviving mice ([6]; day 42): 37.5% | percent of the surviving mice ([6]; day 43): 25% | percent of the surviving mice ([6]; day 44): 0% | binding to clinical GBM cryosections (clinical GBM samples): showed binding to all human GBM samples tested | increase in accumulation in angiogenic vessels relative to nontargeted NWs [7]: ~3 fold | increase in NW accumulation compared to non-targeted NWs [8]: 5 fold
